The subject of data set [1] is Pichia kudriavzevii. As to the kind of experiment: Antifungal activity against Candida krusei ATCC 6258 after 24 to 48 hrs by broth microdilution method. The data set is classed as functional. On the technique in general: Dilution methods test growth across graded concentrations, often in twofold steps.
A further data set has as its system Candida tropicalis. Briefly: Antifungal activity against Candida tropicalis ATCC 750 after 24 to 48 hrs by broth microdilution method. The data set is classed as functional.
The subject of a further data set is Escherichia coli. As to the kind of experiment: Antibacterial activity against Escherichia coli ATCC 25922 after 24 hrs by broth microdilution method. The data set is classed as functional. To be noted: ATCC 25922, 24 h.
The next data set deals with Staphylococcus aureus. Briefly: Antibacterial activity against Staphylococcus aureus ATCC 29213 after 24 hrs by broth microdilution method. The data set is classed as functional. To be noted: ATCC 29213, 24 h.
The test system of a further data set is Candida albicans. Briefly: Antifungal activity against Candida albicans ATCC 10231 after 24 to 48 hrs by broth microdilution method. The data set is classed as functional.
The next data set concerns Candida parapsilosis. Briefly: Antifungal activity against Candida parapsilosis ATCC 22019 after 24 to 48 hrs by broth microdilution method. The data set is classed as functional. The note with it: Lodderomyces parapsilosis.
The next data set concerns Enterococcus faecalis. As to the kind of experiment: Antibacterial activity against Enterococcus faecalis ATCC 29212 after 24 hrs by broth microdilution method. To be noted: ATCC 29212, 24 h. The data set is classed as functional.
In data set [2] the test system is Pichia kudriavzevii. Briefly: Ratio of fluconazole MIC to compound MIC for Candida krusei ATCC 6258. The data set is classed as functional.
Data set [3] relates to THP-1. Briefly: Cytotoxicity against human THP1 cells assessed as release of lactate dehydrogenase at 4 times MIC after 24 hrs. The data set is classed as cell-based. The note with it: thp-1, 24 h.
The subject of data set [4] is THP-1. Briefly: Cytotoxicity against human THP1 cells at 4 times MIC after 24 hrs by trypan blue exclusion assay. The data set is classed as cell-based. To be noted: thp-1, 24 h.
Data set [5] concerns THP-1. As to the kind of experiment: Cytotoxicity against human THP1 cells assessed as release of lactate dehydrogenase at 10 times MIC after 24 hrs. The data set is classed as cell-based. To be noted: thp-1, 24 h.

Values after ≈ are worked out from the molar mass of the structure shown.

A word on the MIC: it is the least concentration at which growth counts as inhibited. The low end stands for inhibition by little substance, the high end for a need for much substance.

As for `Nc1nc2ccc(COc3ccccc3)cc2s1`, the MIC is 64 µg/mL (≈ 250 µM) against Pichia kudriavzevii [1]; 16 µg/mL (≈ 62.4 µM) against Candida tropicalis; > 512 µg/mL in the data set with Escherichia coli; 256 µg/mL (≈ 999 µM) against Staphylococcus aureus; 32 µg/mL (≈ 125 µM) with Candida albicans; 16 µg/mL (≈ 62.4 µM) in the data set on Candida parapsilosis. In addition, the lowest concentration to inhibit growth against Enterococcus faecalis (MIC) was 128 µg/mL (≈ 499 µM).

`CCOc1ccc2nc(N)sc2c1`: the MIC against Pichia kudriavzevii [1] is 256 µg/mL (≈ 1320 µM); with Candida tropicalis it was 128 µg/mL (≈ 659 µM); with Escherichia coli it was > 512 µg/mL; with Staphylococcus aureus, 512 µg/mL (≈ 2640 µM); against Candida albicans, 128 µg/mL (≈ 659 µM); against Candida parapsilosis it was 128 µg/mL (≈ 659 µM). The molecule further showed a minimal inhibitory concentration (MIC) against Enterococcus faecalis of 512 µg/mL (≈ 2640 µM).

As for `COc1ccc2nc(N)sc2c1`, the MIC was 512 µg/mL (≈ 2840 µM) with Pichia kudriavzevii [1]; 256 µg/mL (≈ 1420 µM) in the data set on Candida tropicalis; > 512 µg/mL with Escherichia coli; 128 µg/mL (≈ 710 µM) with Staphylococcus aureus; 256 µg/mL (≈ 1420 µM) against Candida albicans; 256 µg/mL (≈ 1420 µM) against Candida parapsilosis. In the data set on Enterococcus faecalis, 128 µg/mL (≈ 710 µM) was the least that counted as inhibitory (MIC).

For `Nc1nc2ccc(OCCCc3ccccc3)cc2s1`, the MIC in the data set on Pichia kudriavzevii [1] was 16 µg/mL (≈ 56.3 µM); against Candida tropicalis it was 16 µg/mL (≈ 56.3 µM); in the data set with Escherichia coli it was > 512 µg/mL; with Staphylococcus aureus, 512 µg/mL (≈ 1800 µM); in the data set with Candida albicans it was 32 µg/mL (≈ 113 µM); against Candida parapsilosis, 16 µg/mL (≈ 56.3 µM). In the data set on Enterococcus faecalis, this molecule displayed a minimum inhibitory concentration (MIC) of 128 µg/mL (≈ 450 µM). In addition, the Ratio in the data set on Pichia kudriavzevii [2] was found to be 2.

As to `Nc1nc2ccc(OCCc3ccccc3)cc2s1`, the MIC is 16 µg/mL (≈ 59.2 µM) in the data set on Pichia kudriavzevii [1]; 32 µg/mL (≈ 118 µM) against Candida tropicalis; > 512 µg/mL against Escherichia coli; > 512 µg/mL in the data set with Staphylococcus aureus; 8 µg/mL (≈ 29.6 µM) in the data set with Candida albicans; 16 µg/mL (≈ 59.2 µM) with Candida parapsilosis. Also, the lowest concentration to inhibit growth in the data set with Enterococcus faecalis (MIC) was 128 µg/mL (≈ 473 µM). In the data set on Pichia kudriavzevii [2], the Ratio was found to be 2.

`Nc1nc2ccc(C(F)(F)F)cc2s1`: the MIC against Pichia kudriavzevii [1] was 64 µg/mL (≈ 293 µM); in the data set on Candida tropicalis, 64 µg/mL (≈ 293 µM); against Escherichia coli, > 512 µg/mL; in the data set with Staphylococcus aureus, 256 µg/mL (≈ 1170 µM); against Candida albicans, 16 µg/mL (≈ 73.3 µM); against Candida parapsilosis, 64 µg/mL (≈ 293 µM). In the data set on Enterococcus faecalis, it took 256 µg/mL (≈ 1170 µM) to inhibit growth (MIC).

Take `Nc1nc2ccc(OCCCCc3ccccc3)cc2s1`: the MIC against Pichia kudriavzevii [1] is > 512 µg/mL; against Candida tropicalis it was 512 µg/mL (≈ 1720 µM); in the data set on Escherichia coli it was > 512 µg/mL; with Staphylococcus aureus, 512 µg/mL (≈ 1720 µM); with Candida albicans it was 512 µg/mL (≈ 1720 µM); in the data set on Candida parapsilosis it was 128 µg/mL (≈ 429 µM). This molecule also gave an MIC with Enterococcus faecalis of 256 µg/mL (≈ 858 µM).

In the case of `Nc1nc2ccc(OC(F)(F)F)cc2s1` [RILUZOLE], the MIC with Pichia kudriavzevii [1] was 128 µg/mL (≈ 547 µM); in the data set on Candida tropicalis, 128 µg/mL (≈ 547 µM); against Escherichia coli it was 512 µg/mL (≈ 2190 µM); against Staphylococcus aureus it was 256 µg/mL (≈ 1090 µM); in the data set with Candida albicans it was 64 µg/mL (≈ 273 µM); against Candida parapsilosis it was 64 µg/mL (≈ 273 µM). The same molecule came in with an MIC in the data set on Enterococcus faecalis of 512 µg/mL (≈ 2190 µM).

`CCn1cc(C(=O)O)c(=O)c2cc(F)c(N3CCNCC3)cc21` [NORFLOXACIN]: the MIC stood at 0.03 µg/mL (≈ 0.0939 µM) with Escherichia coli, 0.5 µg/mL (≈ 1.57 µM) against Staphylococcus aureus and 4 µg/mL (≈ 12.5 µM) against Enterococcus faecalis.

In the case of `OC(Cn1cncn1)(Cn1cncn1)c1ccc(F)cc1F` [FLUCONAZOLE], the MIC stood at 32 µg/mL (≈ 104 µM) in the data set on Pichia kudriavzevii [1], 4 µg/mL (≈ 13.1 µM) in the data set with Candida tropicalis, 2 µg/mL (≈ 6.53 µM) against Candida albicans and 2 µg/mL (≈ 6.53 µM) in the data set with Candida parapsilosis.

As for `Nc1nc2ccc(OCc3ccc(Cl)cc3)cc2s1`, the Activity result in the data set with THP-1 [3] and in the data set on THP-1 [4] was “Toxic” each time. Also, the MIC is 64 µg/mL (≈ 220 µM) with Pichia kudriavzevii [1]; 4 µg/mL (≈ 13.8 µM) in the data set with Candida tropicalis; > 512 µg/mL with Escherichia coli; 256 µg/mL (≈ 880 µM) with Staphylococcus aureus; 4 µg/mL (≈ 13.8 µM) in the data set on Candida albicans; 8 µg/mL (≈ 27.5 µM) with Candida parapsilosis. The MIC in the data set on Enterococcus faecalis worked out at 256 µg/mL (≈ 880 µM).

Regarding `Nc1nc2ccc(Oc3ccc(Cl)cc3)cc2s1`, the MIC in the data set with Pichia kudriavzevii [1] is 32 µg/mL (≈ 116 µM); against Candida tropicalis, 8 µg/mL (≈ 28.9 µM); in the data set on Escherichia coli, > 512 µg/mL; against Staphylococcus aureus, 512 µg/mL (≈ 1850 µM); in the data set on Candida albicans it was 8 µg/mL (≈ 28.9 µM); in the data set with Candida parapsilosis it was 4 µg/mL (≈ 14.5 µM). Moreover, in the data set on Enterococcus faecalis, it took 512 µg/mL (≈ 1850 µM) to inhibit growth (MIC). The Activity entry in the data set with THP-1 [5] was “Non-toxic”.

As to `Nc1nc2ccc(OCc3ccccc3)cc2s1`, the MIC with Pichia kudriavzevii [1] is 64 µg/mL (≈ 250 µM); in the data set with Candida tropicalis, 8 µg/mL (≈ 31.2 µM); in the data set on Escherichia coli it was > 512 µg/mL; against Staphylococcus aureus, > 512 µg/mL; in the data set on Candida albicans, 8 µg/mL (≈ 31.2 µM); against Candida parapsilosis, 8 µg/mL (≈ 31.2 µM). Moreover, the MIC against Enterococcus faecalis is > 512 µg/mL.

Take `Nc1nc2ccc(Oc3ccccc3)cc2s1`: the MIC against Pichia kudriavzevii [1] was 32 µg/mL (≈ 132 µM); with Candida tropicalis, 32 µg/mL (≈ 132 µM); with Escherichia coli, > 512 µg/mL; in the data set on Staphylococcus aureus, > 512 µg/mL; against Candida albicans it was 128 µg/mL (≈ 528 µM); in the data set with Candida parapsilosis, 16 µg/mL (≈ 66 µM). In addition, the minimal inhibitory concentration (MIC) against Enterococcus faecalis is > 512 µg/mL.

(Values after ChEMBL document CHEMBL2385068, “2-Aminobenzothiazole derivatives: search for new antifungal agents” (Eur J Med Chem, 2013).)
